According to patent US20030139470A1, “3,4-dihydroxybenzyl-substituted carbonic acid derivatives and the use thereof as antioxidants” (priority 2000, published 2003):

Legend:
[1] = DPPH test for the removal of free radicals (activity as free-radical scavengers); settings: DPPH 100 μmol/l in methanol, absorption at 515 nm
Description: The activity of the exemplary compounds as free-radical scavengers was compared with that of conventional free-radical scavengers. For this purpose, the DPPH-(1,1-diphenyl-2-picrylhydrazyl) test for the removal of free radicals was used.
DPPH was dissolved in methanol to a concentration of 100 μmol/l. A series of dilutions of the exemplary compounds, vitamin C, α-tocopherol and 3,5-di-tert-butyl-4-hydroxytoluene were prepared in methanol. Methanol served as the control. 2500 μl of the DPPH solution were mixed with 500 μl of each test solution and the decrease in absorption at 515 nm was read until the decrease was less than 2% per hour. The activity of the test substances as free-radical scavengers was calculated according to the following equation:
Activity as free-radical scavenger (%)=100−(absorption of the test compounds)/(absorption of the control)×100.
The activity as free-radical scavenger (%) in a series of dilutions of test compounds was used to calculate, for each test compound, the effective relative concentration EC50 (based on the starting concentration of DPPH, EC=c(test compound)/c(DPPH)) of a test compound at which 50% of the free radical DPPH had been removed.

[2] = Accelerated autoxidation of lipids by air, Rancimat apparatus, squalene; settings: antioxidative index = IP(with test solution)/IP(control sample), squalene purified over alumina grade N, stabilized with 1 ppm α-tocopherol
Description: (§1) The activity of the exemplary compounds as antioxidants was compared with that of conventional antioxidants. The test system used was the accelerated autoxidation of lipids by air with or without antioxidant using the Rancimat apparatus (Rancimat is a registered trademark of Metrohm AG, Herisau, Switzerland).
(§2) The exemplary compounds, vitamin C, α-tocopherol and 3,5-di-tert-butyl-4-hydroxytoluene were dissolved in methanol or acetone, and 100 μl of each test solution was added to a 3 g prepared oil sample. In a control sample, only solvent was added. A constant stream of dry air (20 l/h) was bubbled through the heated oil sample which contained the test solution, and the volatile oxidation products (predominantly short-chain fatty acids such as formic acid or acetic acid) were collected in a receiver containing water. The conductivity of this aqueous solution was continuously measured and documented. The oxidation of (unsaturated) fats proceeds only very slowly for some time and then suddenly increases. The time to the increase is referred to as the induction period (IP).
(§3) The following equation was used to calculate the antioxidative index (AOI):
(§4) AOI=IP(with test solution)/IP(control sample).
The results for the experiment at 80° C. in squalene that has been purified over alumina grade N and stabilized with 1 ppm of α-tocopherol are given in Table 4: […]

[3] = Accelerated autoxidation of lipids by air, Rancimat apparatus, soybean oil; settings: antioxidative index = IP(with test solution)/IP(control sample), soybean oil purified over alumina grade N
Description: as §1, §2, §3, §4

SMILES | EC50 (effective relative concentration, c(test compound)/c(DPPH), at which 50% of the free radical DPPH had been removed) [1] | AOI in squalene at 80° C. with 0.005% test substance [2] | AOI in soybean oil at 100° C. with 0.05% test substance [3]
COC(=O)NCc1ccc(O)c(O)c1 [Example 1, N-(3,4-Dihydroxybenzyl)-O-methylurethane] | 0.29 mol/mol | 34 | 7.2
CCCCCCOC(=O)NCc1ccc(O)c(O)c1 [Example 3, N-(3,4-Dihydroxybenzyl)-O-hexylurethane] | 0.19 mol/mol | 49 | 14.5
CC(C)[C@@H]1CC[C@@H](C)C[C@H]1OC(=O)NCc1ccc(O)c(O)c1 [Example 2, N-(3,4-Dihydroxybenzyl)-O-[(1R,3R,4S)menthyl]urethane] | 0.36 mol/mol | 48 | 6.5
CCCCC(CC)COC(=O)NCc1ccc(O)c(O)c1 (centres unmarked) [Example 4, N-(3,4-Dihydroxybenzyl)-O-(2-ethylhexyl)urethane] | 0.13 mol/mol | 45 | 10.7
Cc1c(C)c2c(c(C)c1O)CC[C@@](C)(CCC[C@H](C)CCC[C@H](C)CCCC(C)C)O2 [α-Tocopherol, reference compound] | 0.25 mol/mol | 39 | 5.1
Cc1cc(C(C)(C)C)c(O)c(C(C)(C)C)c1 [3,5-Di-tert-butyl-4-hydroxytoluene, reference compound] | 0.24 mol/mol | 38 | 4.8
O=C1O[C@H]([C@@H](O)CO)C(O)=C1O [Vitamin C, reference compound] | 0.27 mol/mol | 0.7 | 1.2
CCCCCCNC(=S)NCc1ccc(O)c(O)c1 [Example 5, N-(3,4-Dihydroxybenzyl)-N′-hexylthiourea] | 0.06 mol/mol | 62 | 
